Reference: US10865384B2, “2,4,5-tri-substituted azole-based casein kinase 1 inhibitors as inducers for cardiomyogenesis” (AGENCY FOR SCIENCE, TECHNOLOGY AND RESEARCH, priority 2014, dated 2020)
Read-outs that look alike come from different tables or passages of the source.

How the values were obtained:
CK1δ = CK1δ (Homo sapiens (Human), UniProt P48730); experiment: LanthaScreen Eu kinase binding assay, CK1δ
CK1ϵ = CK1ϵ (Homo sapiens (Human), UniProt P49674); experiment: LanthaScreen Eu kinase binding assay, CK1ϵ
CK1ϵ, sequence (P49674 whole entry): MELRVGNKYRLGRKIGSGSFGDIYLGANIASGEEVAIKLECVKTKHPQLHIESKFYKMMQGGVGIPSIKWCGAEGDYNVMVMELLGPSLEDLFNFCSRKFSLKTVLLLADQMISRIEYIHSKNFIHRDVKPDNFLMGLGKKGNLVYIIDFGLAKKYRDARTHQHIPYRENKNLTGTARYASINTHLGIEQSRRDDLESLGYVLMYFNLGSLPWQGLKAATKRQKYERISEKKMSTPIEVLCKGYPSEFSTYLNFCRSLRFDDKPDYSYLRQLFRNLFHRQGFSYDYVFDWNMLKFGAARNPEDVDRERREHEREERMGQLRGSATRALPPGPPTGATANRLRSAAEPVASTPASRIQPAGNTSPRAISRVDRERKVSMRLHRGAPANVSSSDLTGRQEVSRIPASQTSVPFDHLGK

p38α MAPK [1] = target: T1, p38α MAPK (Homo sapiens (Human), UniProt Q16539); experiment: LanthaScreen Eu kinase binding assay, p38 MAPK (IM-32 to IM-44); conditions: LanthaScreen Eu binding assay (IM-32 to IM-44); read-out: p38α MAPK IC50 ± SEM
T1 sequence (Q16539 whole entry, looked up): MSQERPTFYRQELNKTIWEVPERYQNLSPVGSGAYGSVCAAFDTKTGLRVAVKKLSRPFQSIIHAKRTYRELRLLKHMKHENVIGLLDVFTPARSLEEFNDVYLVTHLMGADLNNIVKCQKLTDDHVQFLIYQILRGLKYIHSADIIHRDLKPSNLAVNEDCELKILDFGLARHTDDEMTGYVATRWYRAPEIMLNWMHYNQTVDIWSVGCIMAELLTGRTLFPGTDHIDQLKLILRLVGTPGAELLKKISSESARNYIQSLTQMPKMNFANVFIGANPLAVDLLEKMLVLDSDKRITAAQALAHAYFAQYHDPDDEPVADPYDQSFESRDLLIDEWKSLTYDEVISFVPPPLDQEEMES
Description: The p38 MAPK IC50 values of selected compounds except IM-32 to IM-44 were determined using the HitHunter™ p38 MAP kinase binding assay from DiscoveRx Corporation (Fremont, Calif., USA). The p38 MAPK IC50 values of IM-32 to IM-44 and the CK1 IC50 values of selected compounds were determined using LanthaScreen™ Eu kinase binding assay from Invitrogen (Life Technologies, Carlsbad, Calif., USA). The assays were performed following the manufacturers' protocols in white 384-well plates (Cat. No. 3572; Corning Incorporated, Corning, N.Y., USA). SB203580 was used as the control in all assays. For the HitHunter™ p38 MAP kinase binding assay the compounds were dissolved in DMSO (5 mM stocks) and diluted to a final concentration of 2% (vol/vol) DMSO for all assays. Recombinant GST-tagged active p38α MAP kinase enzyme (Millipore, Billerica, Mass., USA) was used for the HitHunter™ p38 MAP kinase binding assay. For the LanthaScreen™ Eu kinase binding assay the compounds were dissolved in DMSO (5 mM stocks) and diluted to a final concentration of 1% (vol/vol) DMSO for all assays. Each data point was done in triplicate. The assay was run using JANUS Automated Workstation according to the protocol developed using WinPREP software (Perkin Elmer Inc., Waltham, Mass., USA). Tecan Infinite® M1000 microplate reader (Tecan Group Ltd., Minnedorf, Switzerland) was used for luminescence measurements (HitHunter™ p38 MAP kinase binding assay) and fluorescence measurements (LanthaScreen™ Eu kinase binding assay; ex=340 nm, em=665, 615 nm). All data analysis was performed using GraphPad Prism 5 software (GraphPad Software Inc.). Inhibition curves and IC50 values were generated by nonlinear regression analysis and data represent mean±SEM.
The in vitro IC50 values of the synthesized compounds against the relevant kinase targets are summarized. The IC50 values were determined using either the HitHunter™ p38 MAPK binding assay from DiscoveRx or the LanthaScreen™ Eu kinase binding assay (for p38alpha MAPK, CK1delta, and CK1epsilon) from Invitrogen.

p38α MAPK [2] = conditions: read-out: IC50 (published by companies), p38α MAPK inhibition; cited from earlier work
p38α MAPK [3] = target: T1, p38α MAPK; experiment: HitHunter p38 MAP kinase binding assay; conditions: read-out: p38α MAPK IC50 ± SEM
hESC3 Nkx2.5eGFP/w cells = experiment: Differentiation in 96-U bottom ultra-low attachment well plates, GFP area imaging; format: cell-based, human; conditions: 5 μM; for Average GFP %: after CHIR99021, read on day 14, GFP area over embryoid body size; for Average GFP μm^2 / Average Area μm^2: day 14; for Average Area μm^2: embryoid body size
H3 hESCs Nkx2.5eGFP/w = experiment: High yield cardiomyocyte differentiation after 24 h CHIR99021 pre-treatment; format: cell-based, human; conditions: CHIR99021 only; CHIR99021 with SB203580 (days 1-8); CHIR99021 with IM-31 (days 4-8)

CK1δ, sequence (P48730 whole entry): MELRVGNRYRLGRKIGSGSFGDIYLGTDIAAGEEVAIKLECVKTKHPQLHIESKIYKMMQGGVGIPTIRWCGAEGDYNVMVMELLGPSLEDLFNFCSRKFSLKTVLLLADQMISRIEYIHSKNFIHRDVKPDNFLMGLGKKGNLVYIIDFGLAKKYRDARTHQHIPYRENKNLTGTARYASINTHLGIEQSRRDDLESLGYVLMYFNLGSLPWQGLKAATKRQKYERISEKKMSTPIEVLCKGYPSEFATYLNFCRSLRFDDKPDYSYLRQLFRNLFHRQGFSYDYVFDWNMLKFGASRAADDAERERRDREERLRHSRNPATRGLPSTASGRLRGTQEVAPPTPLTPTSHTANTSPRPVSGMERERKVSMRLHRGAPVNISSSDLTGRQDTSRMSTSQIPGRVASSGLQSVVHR

Cc1cccc(-c2nc(-c3ccc(S(C)(=O)=O)cc3)[nH]c2-c2ccncc2)c1 [IM-33, 4-(2-(4-(methylsulfonyl)phenyl)-4(5)-(m-tolyl)-1H-imidazol-5(4)-yl)pyridine]
inhibition at 1 µM (CK1δ): 23%
inhibition at 1 µM (CK1ϵ): 36%
IC50 (p38α MAPK [1]): 0.0095 ± 0.0028 µM

Cc1cccc(-c2nc(-c3ccc(C(N)=O)cc3)[nH]c2-c2ccncc2)c1 [IM-39, 4-(5(4)-(pyridin-4-yl)-4(5)-(m-tolyl)-1H-imidazol-2-yl)benzamide]
IC50 (CK1δ; Table 3, read-out: IC50 CK1δ): 0.787 µM
IC50 (CK1δ; read-out: CK1δ IC50 ± SEM): 0.787 ± 0.098 µM
IC50 (CK1ϵ; Table 3, read-out: IC50 Ck1ε): 0.3 µM
IC50 (CK1ϵ; read-out: CK1ϵ IC50 ± SEM): 0.3 ± 0.016 µM
IC50 (p38α MAPK [1]): 0.0027 ± 0.0003 µM

COC(=O)c1ccc(-c2nc(-c3cccc(C)c3)c(-c3ccncc3)[nH]2)cc1 [IM-40, Methyl 4-(5(4)-(pyridin-4-yl)-4(5)-(m-tolyl)-1H-imidazol-2-yl)benzoate]
inhibition at 1 µM (CK1δ): 10%
inhibition at 1 µM (CK1ϵ): 43%
IC50 (p38α MAPK [1]): 0.0037 ± 0.0007 µM

Fc1ccc(-c2nc(-c3ccccc3F)[nH]c2-c2ccncc2)cc1 [IM-30, 4-(2-(2-fluorophenyl)-4(5)-(4-fluorophenyl)-1H-imidazol-5(4)-yl)pyridine]
IC50 (p38α MAPK [3]): 0.02 ± 0.004 µM
IC50 (CK1δ; Table 3, read-out: IC50 CK1δ): 0.032 µM
IC50 (CK1δ; read-out: CK1δ IC50 ± SEM): 0.032 ± 0.004 µM
IC50 (CK1ϵ; Table 3, read-out: IC50 Ck1ε): 0.032 µM
IC50 (CK1ϵ; read-out: CK1ϵ IC50 ± SEM): 0.032 ± 0.004 µM
Cardiogenic properties (hESC3 Nkx2.5eGFP/w cells; at specific time course (induction day 2 or 3)): higher cardiogenic properties as SB203580 and IWP-2
Average GFP % (hESC3 Nkx2.5eGFP/w cells; Induction Day 2): 32.8%
Average GFP μm^2 (hESC3 Nkx2.5eGFP/w cells; Induction Day 2): 250.1 μm^2
Average Area μm^2 (hESC3 Nkx2.5eGFP/w cells; Induction Day 2): 816.0 μm^2
Average GFP % (hESC3 Nkx2.5eGFP/w cells; Induction Day 3): 36.5%
Average GFP μm^2 (hESC3 Nkx2.5eGFP/w cells; Induction Day 3): 354.1 μm^2
Average Area μm^2 (hESC3 Nkx2.5eGFP/w cells; Induction Day 3): 968.7 μm^2

Oc1ccc(-c2nc(-c3ccc(F)cc3)c(-c3ccncc3)[nH]2)cc1 [SB202190, reference compound]
IC50 (CK1δ; Table 3, read-out: IC50 CK1δ): 0.053 µM
IC50 (CK1δ; read-out: CK1δ IC50 ± SEM): 0.053 ± 0.007 µM
IC50 (CK1ϵ; Table 3, read-out: IC50 Ck1ε): 0.083 µM
IC50 (CK1ϵ; read-out: CK1ϵ IC50 ± SEM): 0.083 ± 0.004 µM

Cc1cccc(-c2nc(-c3ccc(C(=N)NO)cc3)[nH]c2-c2ccncc2)c1 [IM-37, (Z)—N′-hydroxy-4-(5(4)-(pyridin-4-yl)-4(5)-(m-tolyl)-1H-imidazol-2-yl)benzimidamide]
IC50 (CK1δ; Table 3, read-out: IC50 CK1δ): 0.889 µM
IC50 (CK1δ; read-out: CK1δ IC50 ± SEM): 0.889 ± 0.29 µM
IC50 (CK1ϵ; Table 3, read-out: IC50 Ck1ε): 0.295 µM
IC50 (CK1ϵ; read-out: CK1ϵ IC50 ± SEM): 0.295 ± 0.048 µM
IC50 (p38α MAPK [1]): 0.0032 ± 0.0003 µM

Cc1cccc(-c2nc(-c3ccc(C#N)cc3)[nH]c2-c2ccncc2)c1 [IM-36, 4-(5(4)-(pyridin-4-yl)-4(5)-(m-tolyl)-1H-imidazol-2-yl)benzonitrile]
inhibition at 1 µM (CK1δ): 11%
inhibition at 1 µM (CK1ϵ): 36%
IC50 (p38α MAPK [1]): 0.0053 ± 0.0005 µM

Cc1cccc(-c2nc(-c3ccc(C(=O)O)cc3)[nH]c2-c2ccncc2)c1 [IM-38, 4-(5(4)-(pyridin-4-yl)-4(5)-(m-tolyl)-1H-imidazol-2-yl)benzoic acid]
IC50 (CK1δ; Table 3, read-out: IC50 CK1δ): 4.71 µM
IC50 (CK1δ; read-out: CK1δ IC50 ± SEM): 4.71 ± 1.62 µM
IC50 (CK1ϵ; Table 3, read-out: IC50 Ck1ε): 1.06 µM
IC50 (CK1ϵ; read-out: CK1ϵ IC50 ± SEM): 1.06 ± 0.108 µM
IC50 (p38α MAPK [1]): 0.0033 ± 0.0011 µM

C[S+]([O-])c1ccc(-c2nc(-c3ccc(F)cc3)c(-c3ccncc3)[nH]2)cc1 (stereo not drawn) [SB203580, reference compound]
Average beating frequency (H3 hESCs Nkx2.5eGFP/w): 25-30 beats per minute
Beat count (percentage of EBs contracting within 10 s) (H3 hESCs Nkx2.5eGFP/w): over 75%
Beating area (H3 hESCs Nkx2.5eGFP/w): > 5 mm^2
Average GFP % (hESC3 Nkx2.5eGFP/w cells; Induction Day 2): 34.6%
Average GFP μm^2 (hESC3 Nkx2.5eGFP/w cells; Induction Day 2): 217.8 μm^2
Average Area μm^2 (hESC3 Nkx2.5eGFP/w cells; Induction Day 2): 655.4 μm^2
Average GFP % (hESC3 Nkx2.5eGFP/w cells; Induction Day 3): 3.7%
Average GFP μm^2 (hESC3 Nkx2.5eGFP/w cells; Induction Day 3): 40.2 μm^2
Average Area μm^2 (hESC3 Nkx2.5eGFP/w cells; Induction Day 3): 814.2 μm^2

Cc1cccc(-c2nc(-c3ccc(NS(C)(=O)=O)cc3)[nH]c2-c2ccncc2)c1 [IM-35, N-(4-(5(4)-(pyridin-4-yl)-4(5)-(m-tolyl)-1H-imidazol-2-yl)phenyl)methanesulfonamide]
inhibition at 1 µM (CK1δ): 13%
inhibition at 1 µM (CK1ϵ): 40%
IC50 (p38α MAPK [1]): 0.005 µM

Cc1cccc(-c2nc(C#CCCO)[nH]c2-c2ccncc2)c1 [IM-41, 4-(5(4)-(pyridin-4-yl)-4(5)-(m-tolyl)-1H-imidazol-2-yl)but-3-yn-1-ol]
inhibition at 1 µM (CK1δ): 11%
inhibition at 1 µM (CK1ϵ): 38%
IC50 (p38α MAPK [1]): 0.047 ± 0.005 µM

Cc1cccc(-c2nc(-c3ccc([N+](=O)[O-])cc3)[nH]c2-c2ccncc2)c1 [IM-32, 4-(2-(4-nitrophenyl)-4(5)-(m-tolyl)-1H-imidazol-5(4)-yl)pyridine]
inhibition at 1 µM (CK1δ): 31%
inhibition at 1 µM (CK1ϵ): 47%
IC50 (p38α MAPK [1]): 0.0044 ± 0.0024 µM

Cc1cccc(-c2nc(CN(C)C)[nH]c2-c2ccncc2)c1 [IM-42, N,N-dimethyl-1-(5(4)-(pyridin-4-yl)-4(5)-(m-tolyl)-1H-imidazol-2-yl)methanamine]
inhibition at 1 µM (CK1δ): 3%
inhibition at 1 µM (CK1ϵ): 29%
IC50 (p38α MAPK [1]): 0.026 ± 0.003 µM

Cc1cccc(-c2nc(-c3ccc(N)cc3)[nH]c2-c2ccncc2)c1 [IM-34, 4-(5(4)-(pyridin-4-yl)-4(5)-(m-tolyl)-1H-imidazol-2-yl)aniline]
inhibition at 1 µM (CK1δ): 24%
inhibition at 1 µM (CK1ϵ): 28%
IC50 (p38α MAPK [1]): 0.0028 ± 0.002 µM

Cc1cccc(-c2nc(C(O)C3=CCCCC3)[nH]c2-c2ccncc2)c1 (racemic) [IM-43, Cyclohex-1-en-1-yl(5(4)-(pyridin-4-yl)-4(5)-(m-tolyl)-1H-imidazol-2-yl)methanol]
CK1δ inhibition at 1 μM (CK1δ; at 1 μM): No inhibition at 1 μM
inhibition at 1 µM (CK1ϵ): 22%
IC50 (p38α MAPK [1]): 0.011 ± 0.002 µM

Cc1cccc(-c2nc[nH]c2-c2ccncc2)c1 [IM-44, 4-(4(5)-(m-tolyl)-1H-imidazol-5(4)-yl)pyridine]
inhibition at 1 µM (CK1δ): 4%
inhibition at 1 µM (CK1ϵ): 42%
IC50 (p38α MAPK [1]): 0.045 ± 0.008 µM

Cc1cccc(-c2nc(-c3ccc4ccccc4c3)[nH]c2-c2ccncc2)c1 [IM-01, 4-(2-(naphthalen-2-yl)-4(5)-(m-tolyl)-1H-imidazol-5(4)-yl)pyridine]
IC50 (p38α MAPK [3]): 0.098 ± 0.011 µM
inhibition at 1 µM (CK1δ): 5%
inhibition at 1 µM (CK1ϵ): 6%
